Data from PubChem BioAssay (NCI).
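All cell lines were grown in 96-well plates and treated with compound for 48 hours. The concentration for 50% growth inhibition is given as GI50. TGI denotes the concentration required for complete inhibition of growth.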

Experiments:
Assay in all cases: NCI tumour cell line growth inhibition, 48 h
[1] = tested on: SF-295 CNS
[2] = tested on: HCT-116 colon
[3] = tested on: SF-268 CNS
[4] = tested on: CCRF-CEM leukemia
[5] = tested on: NCI-H522 lung
[6] = tested on: HOP-92 NSCLC
[7] = tested on: OVCAR-3 ovarian
[8] = tested on: MCF7 breast
[9] = tested on: NCI-H460 lung
[10] = tested on: LOX IMVI melanoma

Row | SMILES | TGI [1] [µM] | TGI [2] [µM] | TGI [3] [µM] | TGI [4] [µM] | TGI [5] [µM] | TGI [6] [µM] | TGI [7] [µM] | TGI [8] [µM] | TGI [9] [µM] | TGI [10] [µM] | GI50 [1] [µM] | GI50 [2] [µM] | GI50 [3] [µM] | GI50 [5] [µM] | GI50 [6] [µM] | GI50 [7] [µM] | GI50 [8] [µM] | GI50 [9] [µM] | GI50 [10] [µM] | GI50 [4] [µM]
1 | CC1(C)CC(=O)C(C(c2cccc(O)c2O)C2C(=O)CC(C)(C)CC2=O)C(=O)C1 | > 100 | > 100 | > 100 | > 100 | > 100 | > 100 | > 100 | > 100 | > 100 | > 100 | – | – | – | – | – | – | – | – | – | –
2 | O=c1cc2n(c(=O)[nH]1)C1OC(C(O)C1O)[C@H]2CCO (stereo not given in full) | > 100 | – | > 100 | > 100 | > 100 | > 100 | – | – | > 100 | > 100 | – | – | – | – | – | – | – | – | – | –
3 | COc1ccc(/C=C2\N=C(c3ccccc3)N(c3cc(C(F)(F)F)ccc3Cl)C2=O)cc1OC | > 100 | 41.4 | > 100 | – | > 100 | > 100 | > 100 | > 100 | > 100 | 51.6 | 95 | 21.4 | 31.8 | 31.8 | 83.9 | 37.9 | 35.4 | 43 | 23.8 | –
4 | O=C(CCc1nnc2s/c(=C\c3ccc4c(c3)OCO4)c(=O)n12)Nc1cc(Cl)ccc1Cl | > 100 | > 78.8 | > 100 | > 100 | > 100 | > 100 | > 100 | – | > 100 | > 100 | – | – | – | – | – | – | – | – | – | –
5 | O=C(c1ccccc1)c1ccc(Cl)c([N+](=O)[O-])c1 | 34.5 | 18.1 | 18 | 13.5 | 6.18 | – | 12.7 | 9.74 | 39.3 | 6.11 | 17.8 | 4.78 | 4.48 | 1.41 | – | 3.83 | 2.56 | 18.5 | 2.43 | 3.18
6 | Nc1nc(=O)n(C2CC(O)C(O)C(CO)O2)cc1F (stereo not given) | > 100 | > 100 | > 100 | > 100 | > 100 | – | > 100 | – | > 100 | > 100 | – | – | – | – | – | – | – | – | – | –
7 | CCCn1cc(C2=C(c3cn(C)c4ccccc34)C(=O)NC2=O)c2ccccc21 | 3.15 | 8.52 | > 16.1 | > 11.2 | 4.58 | – | 2.35 | > 16.2 | 7.39 | 11.2 | 0.715 | 1.24 | 2.64 | 0.467 | – | 0.596 | 0.565 | 1.04 | 2.41 | 0.79
8 | CN(C)c1ccccc1CC(c1c[nH]c2ccccc12)c1c[nH]c2ccccc12 | 24.4 | 23.3 | 28.8 | 26.6 | 26.1 | – | 25.6 | – | 16 | 24.4 | – | – | – | – | – | – | – | – | – | –
9 | O=C(CC1(O)C(=O)Nc2c(Cl)cccc21)c1ccccc1 (stereo not given) | > 100 | – | > 100 | > 100 | > 100 | > 100 | > 100 | – | > 100 | > 100 | – | – | – | – | – | – | – | – | – | –
10 | O=C1C(c2ccc([N+](=O)[O-])cc2)=[N+]([O-])c2ccccc21 | > 100 | 64.3 | > 100 | > 100 | 20.3 | 77.4 | 55.4 | – | > 100 | 60.9 | – | – | – | – | – | – | – | – | – | –
11 | Cc1cc2cc(Cl)ccc2nc1C(=O)c1ccccc1 | > 100 | > 100 | > 100 | – | > 100 | – | > 100 | – | – | > 100 | – | – | – | – | – | – | – | – | – | –
12 | COc1ccc(Nc2c3c4c(cccc4[nH]c2=O)C(=O)c2ccccc2-3)cc1 | < 0.0275 | 0.104 | 18.6 | – | – | > 100 | < 0.0257 | 21.2 | 10.1 | > 100 | < 0.0174 | < 0.01 | 0.0373 | < 0.0175 | 0.332 | < 0.0158 | < 0.0182 | < 0.01 | 0.0239 | –
13 | CC(C)(C)C(=O)OCOP(=O)(OCOC(=O)C(C)(C)C)C1CCCN(OC(=O)c2ccccc2)C1=O (stereo not given) | – | 6.46 | 61.7 | 29.7 | 1.5 | 35.8 | 7.28 | 10.1 | 15.3 | 20.9 | – | 0.558 | 1.86 | 0.338 | 1.25 | 1.24 | 0.528 | 1.11 | 2.53 | 0.643
14 | COC(=O)CSc1ccccc1 | > 100 | > 100 | > 100 | > 100 | – | 99.1 | > 100 | – | > 100 | > 100 | – | – | – | – | – | – | – | – | – | –
15 | CC1(C)Cc2cccc(OCC(O)CN3CCN(c4ccc(F)cc4)CC3)c2O1 (stereo not given) | 39.9 | 15 | > 50 | – | > 50 | 31.4 | > 50 | 49.7 | > 50 | > 50 | 8.83 | 7.34 | 18 | 47.8 | 8.15 | 22.9 | 13.4 | 15.3 | 23.8 | –
16 | O=c1c2cc(Br)ccc2[nH]c(=S)n1-c1ccc(Br)cc1 | > 100 | > 100 | > 100 | – | > 100 | 75.7 | > 100 | – | > 100 | > 100 | – | – | – | – | – | – | – | – | – | –
17 | CN(C)c1ccc(/C=C/C(=O)c2ccccc2)cc1Br | 45.7 | – | 49.3 | 62.7 | 31.4 | – | 35.5 | – | > 100 | – | – | – | – | – | – | – | – | – | – | –
18 | COc1ccc(C(=O)C(c2ccc(OC)cc2)C2C(=O)Oc3ccccc32)cc1 (stereo not given) | > 100 | > 100 | > 100 | > 100 | > 100 | > 100 | > 100 | – | > 100 | – | > 100 | > 100 | > 100 | > 100 | > 100 | > 100 | – | > 100 | – | > 100
